Measured values as given in patent EP3355943B1, “METHODS AND SYSTEMS FOR TREATING MEDICAL DEVICES AND FLUIDS” (Ethicon, Inc., priority 2015, dated 2017).

Tests used:
[1] = Wound dressing (fibrin pad) spiked with LPS, treated in cyclohexane containing CaSt; assay type: biochemical; conditions: Tube 2: 10 mL cyclohexane with 0.1 g CaSt, 15 minutes rolling; for Endotoxin detected on Pad (EU): pad spiked 8.9 EU
Experimental: A wound dressing containing dry fibrinogen and dry thrombin on an absorbable support was tested as follows. The pad was spiked with LPS and then exposed to cyclohexane containing CaSt to determine the effect on detectable LPS.
Three 1x2 inch pieces of the dressing were spiked with endotoxin resulting in 8.9 EU of LPS. The pieces were allowed to dry for 20 minutes, then placed into 50 mL polypropylene conical tubes. 7.5 mL of LAL reagent water +2.5 mL 0.25M tris buffer was added to Tube 1. 10 mL of cyclohexane with 0.1 g of CaSt was added to Tube 2. 10 mL of cyclohexane was added to Tube 3. The tubes were closed and then placed on the bottle roller rotator machine for 15 minutes so that the tube could continuously roll and the dressing was constantly in contact with liquid.
Tube 1 solution was then diluted and tested for endotoxin on the MCS system. The fibrin pad pieces from Tube 2 and Tube 3 were removed and placed in new tubes and extracted in 7.5 mL of LAL reagent water + 2.5 mL 0.25M tris buffer. The solutions were then tested on the MCS system for endotoxin (LPS). Table 9. Results of testing of dressing in cyclohexane containing CaSt

[2] = Kinetics of removal of LPS with different agitation techniques in presence of stearate salts; assay type: biochemical; conditions: for Endotoxin Detected (EU): 5mL SRW, baseline 1,502; for Percent (%) Removed: vs SRW Baseline
Experimental: 5mL of SRW was added to each of the tubes. Each solution was tested for endotoxin removal after agitation based on with sonication, vortexing, or test tube rolling. Sonication samples were sonicated at each indicated time interval for 30 seconds at a magnitude of 30. Vortex samples were vortexed at each indicated time interval for 30 seconds at 2500 RPM. Rolling samples were constantly rolling at 10 rpm. The samples were tested on the MCS for endotoxin at 1 minute, 20 minutes, 40 minutes, 60 minutes, and 80 minutes.

CCCCCCCCCCCCCCCCCC(=O)O [Calcium Stearate]
Percent Endotoxin detected as compared to Tube 1 ([1]; Tube 1 = no cyclohexane, 8.9 EU): 20.2% | Endotoxin detected on Pad (EU) [1]: 1.8 EU | Endotoxin detected on Pad (EU) ([1]; listed as CaSt): 2 EU | removal of LPS (in words), comparison of salts of stearic acid ([2]; CaSt vs. other salt forms): more efficacious in removal of LPS | Endotoxin Detected (EU) ([2]; Rolling, 1 minute): 1,230 EU | Percent (%) Removed ([2]; Rolling, 1 minute): 18.1% | Endotoxin Detected (EU) ([2]; Rolling, 20 minutes): 1,050 EU | Percent (%) Removed ([2]; Rolling, 20 minutes): 30.1% | Endotoxin Detected (EU) ([2]; Rolling, 40 minutes): 630 EU | Percent (%) Removed ([2]; Rolling, 40 minutes): 58.1% | Endotoxin Detected (EU) ([2]; Rolling, 60 minutes): 637 EU | Percent (%) Removed ([2]; Rolling, 60 minutes): 57.6% | Endotoxin Detected (EU) ([2]; Rolling, 80 minutes): 451 EU | Percent (%) Removed ([2]; Rolling, 80 minutes): 70% | Endotoxin Detected (EU) ([2]; Sonication, 1 minute): 270 EU | Percent (%) Removed ([2]; Sonication, 1 minute): 82% | Endotoxin Detected (EU) ([2]; Sonication, 20 minutes): 130 EU | Percent (%) Removed ([2]; Sonication, 20 minutes): 91.3% | Endotoxin Detected (EU) ([2]; Sonication, 40 minutes): 87.5 EU | Percent (%) Removed ([2]; Sonication, 40 minutes): 94.2% | Endotoxin Detected (EU) ([2]; Sonication, 60 minutes): 56.9 EU | Percent (%) Removed ([2]; Sonication, 60 minutes): 96.2% | Endotoxin Detected (EU) ([2]; Sonication, 80 minutes): 16.4 EU | Percent (%) Removed ([2]; Sonication, 80 minutes): 98.9% | Endotoxin Detected (EU) ([2]; Vortexing, 1 minute): 451 EU | Percent (%) Removed ([2]; Vortexing, 1 minute): 70% | Endotoxin Detected (EU) ([2]; Vortexing, 20 minutes): 301 EU | Percent (%) Removed ([2]; Vortexing, 20 minutes): 80% | Endotoxin Detected (EU) ([2]; Vortexing, 40 minutes): 139 EU | Percent (%) Removed ([2]; Vortexing, 40 minutes): 90.7% | Endotoxin Detected (EU) ([2]; Vortexing, 60 minutes): 173 EU | Percent (%) Removed ([2]; Vortexing, 60 minutes): 88.5% | Percent (%) Removed ([2]; Vortexing, 80 minutes): 93.1%
